# Measurements: US10052330B2, “Substituted pyrido[3,4-b]pyrazines as Syk inhibitors” (HUTCHISON MEDIPHARMA LIMITED, priority 2011, dated 2018)
# Biological target: Syk kinase (Homo sapiens, UniProt P43405)
# Test: Syk kinase enzymatic assay (Kit-Tyr 2 Peptide)
# Type: biochemical
# Settings: 8 concentrations, 1 μM down to 0.0003 μM; upper bound of each range is 'less than'; read-out: IC50: Enzymatic Activity (Syk kinase)
row,SMILES,IC50 [nM]
1,c1cnc2c(N3CC4CNCC4C3)nc(-c3ccc(N4CCOCC4)cc3)cc2n1 (stereo not drawn) [Compound 6],100 to 1000
2,COc1cc(-c2cc3nccnc3c(NCC3CCCNC3)n2)cc(OC)c1OC (stereo not drawn) [Compound 11],100 to 1000
3,Fc1ccc(-c2cc3nccnc3c(NCC3CCCNC3)n2)cc1Cl (stereo not drawn) [Compound 20],100 to 1000
4,c1cnc2c(NCC3CCCNC3)nc(-c3ccoc3)cc2n1 (stereo not drawn) [Compound 31],100 to 1000
5,OCCn1cc(-c2cc3nccnc3c(NC[C@H]3CCCNC3)n2)cn1 [Compound 34],1 to 100
6,NS(=O)(=O)c1ccc(-c2cc3nccnc3c(NCC3CCCNC3)n2)cc1 (stereo not drawn) [Compound 43],100 to 1000
7,CNC(=O)COc1ccc(-c2cc3nccnc3c(NCC3CCCNC3)n2)cc1 (stereo not drawn) [Compound 48],1 to 100
8,CNC(=O)COc1cccc(-c2cc3nccnc3c(NCC3CCCNC3)n2)c1 (stereo not drawn) [Compound 49],100 to 1000
9,CS(=O)(=O)Nc1ccc(-c2cc3nccnc3c(NCC3CCCNC3)n2)cc1 (stereo not drawn) [Compound 53],1 to 100
10,Nc1ccc(-c2cc3nccnc3c(NCC3CCCNC3)n2)cn1 (stereo not drawn) [Compound 57],100 to 1000
11,CN(C)c1ccc(-c2cc3nccnc3c(NCC3CCCNC3)n2)cn1 (stereo not drawn) [Compound 59],1 to 100
12,CCNC(=O)c1ccc(-c2cc3nccnc3c(NCC3CCCNC3)n2)cc1 (stereo not drawn) [Compound 66],100 to 1000
13,COCCn1cc(-c2cc3nccnc3c(NCC3CCCNC3)n2)cn1 (stereo not drawn) [Compound 72],100 to 1000
14,CN(C)CCOc1ccc(-c2cc3nccnc3c(NCC3CCCNC3)n2)cc1 (stereo not drawn) [Compound 90],1 to 100
15,c1cnc2c(NC[C@H]3CNCCO3)nc(-c3ccc(N4CCCC4)nc3)cc2n1 [Compound 101],100 to 1000
16,COc1ccc(-c2cc3nccnc3c(NCCCN)n2)cc1OC [Compound 191],100 to 1000
17,COc1cc(-c2cc3nccnc3c(NCCCN)n2)ccc1OCCN1CCOCC1 [Compound 198],100 to 1000
18,Cc1cc(-c2cc3nccnc3c(NCC3CNCC(F)(F)C3)n2)ccc1N1CCOCC1 (stereo not drawn) [Compound 201],100 to 1000
19,Fc1cc(-c2cc3nccnc3c(NCC3CNCC(F)(F)C3)n2)ccc1N1CCOCC1 (stereo not drawn) [Compound 202],100 to 1000
20,CNc1ccc(-c2cc3nccnc3c(NCC3CNCC(F)(F)C3)n2)cc1 (stereo not drawn) [Compound 204],100 to 1000

# Further lines, results first:
row,IC50 [nM],SMILES
1,100 to 1000,"FC1(CNc2nc(-c3ccc(N4CCOCC4)nc3)cc3nccnc23)CCCNC1 (single isomer, unassigned) [Compound 378]"
2,1 to 100,"CN1CCN(c2ccc(-c3cc4nccnc4c(NCC4(F)CCCNC4)n3)cc2)CC1 (single isomer, unassigned) [Compound 380]"
3,100 to 1000,NC1CCN(c2nc(-c3ccc(N4CCOCC4)cc3)cc3nccnc23)CC1 [Compound 7]
4,100 to 1000,c1cnc2c(N3CCC4CNCC43)nc(-c3ccc(N4CCOCC4)cc3)cc2n1 (stereo not drawn) [Compound 8]
5,100 to 1000,c1cc(-c2cc3nccnc3c(NCC3CCCNC3)n2)cc(N2CCOCC2)c1 (stereo not drawn) [Compound 14]
6,100 to 1000,c1cnc2c(NC3CCCNC3)nc(-c3ccc(N4CCOCC4)cc3)cc2n1 (stereo not drawn) [Compound 27]
7,1 to 100,c1cnc2c(NCC3CCCNC3)nc(-c3ccc(N4CCNCC4)cc3)cc2n1 (stereo not drawn) [Compound 61]
8,1 to 100,CN(C)Cc1ccc(-c2cc3nccnc3c(NCC3CCCNC3)n2)cc1 (stereo not drawn) [Compound 64]
9,100 to 1000,O=C(c1ccc(-c2cc3nccnc3c(NCC3CCCNC3)n2)cc1)N1CCOCC1 (stereo not drawn) [Compound 65]
10,100 to 1000,"c1cnc2c(N3CC4CCNC4C3)nc(-c3ccc(N4CCOCC4)cc3)cc2n1 (stereo not drawn) [Compound 145, 4-(4-(5-(hexahydropyrrolo[3,4-b]pyrrol-5(1H)-yl)pyrido[4,3-b]pyrazin-7-yl)phenyl)morpholine]"
11,100 to 1000,CCN(CC1CCCNC1)c1nc(-c2ccc(N3CCOCC3)cc2)cc2nccnc12 (stereo not drawn) [Compound 154]
12,100 to 1000,CC(C)Nc1nc(-c2ccc(N3CCOCC3)cc2)cc2nccnc12 [Compound 195]
13,100 to 1000,FC1(F)CNCC(CNc2nc(-c3ccc(N4CCOCC4)c(Cl)c3)cc3nccnc23)C1 (stereo not drawn) [Compound 203]
